Source: ChEMBL document CHEMBL3885861, “Open TG-GATES”

Species: Rattus norvegicus
Experiment: Open TG-GATES - Regimen: Daily Repeat
Type: toxicity, organism-based, Sprague-Dawley
Parameters: regimen Daily Repeat, gender Male, age 6 weeks
Conditions: in vivo, po, route gavage; for AST / BUN / CRE / Ca / Cl / DBIL / GLC / IP / K / LDH / Na / PL / RALB / TBIL / TC / TG / TP / gamma-GTP / A/G / ALP / ALT: tissue Plasma; for APTT / Bas / Eos / Fbg / Hb / Ht / Lym / MCH / MCHC / MCV / Mono / Neu / PT / Plat / RBC / Ret / WBC: tissue Blood; for KIDNEY_L / KIDNEY_R / KIDNEY_TOTAL: tissue Kidney; for LIVER: tissue Liver
[1] = 100 mg/kg, […], dose level Middle, time 7 day
[2] = 100 mg/kg, […], dose level Middle, time 14 day
[3] = 100 mg/kg, […], dose level Middle, time 28 day
[4] = 300 mg/kg, 72 h, dose level High, time 3 day
[5] = 300 mg/kg, […], dose level High, time 7 day
[6] = 300 mg/kg, […], dose level High, time 14 day

SMILES: CCc1cc(C(N)=S)ccn1 [ETHIONAMIDE]
- AST [1]: 66.8 IU/L
- BUN [1]: 15.8 mg/dL
- CRE [1]: 0.4 mg/dL
- Ca [1]: 10.4 mg/dL
- Cl [1]: 104 meq/L
- DBIL [1]: 0.088 mg/dL
- GLC [1]: 194.8 mg/dL
- IP [1]: 6.7 mg/dL
- K [1]: 4.6 meq/L
- LDH [1]: 106.2 IU/L
- Na [1]: 139.8 meq/L
- PL [1]: 122.2 mg/dL
- RALB [1]: 3.7 g/dL
- TBIL [1]: 0.3 mg/dL
- TC [1]: 62 mg/dL
- TG [1]: 52.2 mg/dL
- TP [1]: 5.7 g/dL
- gamma-GTP [1]: 2.4 IU/L
- A/G [2]: 2.6
- ALP [2]: 878.4 IU/L
- ALT [2]: 33.8 IU/L
- AST [2]: 58.8 IU/L
- BUN [2]: 16.8 mg/dL
- CRE [2]: 0.5 mg/dL
- Ca [2]: 10.5 mg/dL
- Cl [2]: 105 meq/L
- DBIL [2]: 0.034 mg/dL
- GLC [2]: 196.8 mg/dL
- IP [2]: 6.6 mg/dL
- K [2]: 4.4 meq/L
- LDH [2]: 82 IU/L
- Na [2]: 142.2 meq/L
- PL [2]: 125.2 mg/dL
- RALB [2]: 4.2 g/dL
- TBIL [2]: 0.3 mg/dL
- TC [2]: 60.6 mg/dL
- TG [2]: 65.8 mg/dL
- TP [2]: 5.8 g/dL
- gamma-GTP [2]: 1.4 IU/L
- A/G [3]: 2.1
- ALP [3]: 579.4 IU/L
- ALT [3]: 39.4 IU/L
- AST [3]: 56 IU/L
- BUN [3]: 19 mg/dL
- CRE [3]: 0.6 mg/dL
- Ca [3]: 9.9 mg/dL
- Cl [3]: 104.4 meq/L
- DBIL [3]: 0.016 mg/dL
- GLC [3]: 196 mg/dL
- IP [3]: 5.9 mg/dL
- K [3]: 4.6 meq/L
- LDH [3]: 86.2 IU/L
- Na [3]: 140 meq/L
- PL [3]: 121.6 mg/dL
- RALB [3]: 4.2 g/dL
- TBIL [3]: 0.3 mg/dL
- TC [3]: 62.4 mg/dL
- TG [3]: 60.4 mg/dL
- TP [3]: 6.2 g/dL
- gamma-GTP [3]: 1.8 IU/L
- TERMINAL_BW [4]: 204.1 g
- APTT [4]: 20 s
- Bas [4]: 0%
- Eos [4]: 1.4%
- Fbg [4]: 161.6 mg/dL
- Hb [4]: 17.1 g/dL
- Ht [4]: 50.4%
- Lym [4]: 59.8%
- MCH [4]: 21.7 pg
- MCHC [4]: 34.1%
- MCV [4]: 63.5 fL
- Mono [4]: 6.4%
- Neu [4]: 32.6%
- PT [4]: 16 s
- Plat [4]: 119.1 x10_4/uL
- RBC [4]: 794.4 x10_4/ul
- Ret [4]: 13.3%
- WBC [4]: 115.4 x10_2/uL
- KIDNEY_L [4]: 1 g
- KIDNEY_R [4]: 1 g
- KIDNEY_TOTAL [4]: 2 g
- LIVER [4]: 10.3 g
- A/G [4]: 2.3
- ALP [4]: 1108.2 IU/L
- ALT [4]: 72.6 IU/L
- AST [4]: 190.6 IU/L
- BUN [4]: 12.2 mg/dL
- CRE [4]: 0.5 mg/dL
- Ca [4]: 9.7 mg/dL
- Cl [4]: 106.2 meq/L
- DBIL [4]: 0.1 mg/dL
- GLC [4]: 172.6 mg/dL
- IP [4]: 7.6 mg/dL
- K [4]: 4.6 meq/L
- LDH [4]: 244 IU/L
- Na [4]: 139.4 meq/L
- PL [4]: 82.8 mg/dL
- RALB [4]: 3.4 g/dL
- TBIL [4]: 0.3 mg/dL
- TC [4]: 46.4 mg/dL
- TG [4]: 16 mg/dL
- TP [4]: 4.9 g/dL
- gamma-GTP [4]: 1.4 IU/L
- TERMINAL_BW [5]: 227.8 g
- APTT [5]: 21.4 s
- Bas [5]: 0.3%
- Eos [5]: 3.7%
- Fbg [5]: 206 mg/dL
- Hb [5]: 16 g/dL
- Ht [5]: 46.9%
- Lym [5]: 44.7%
- MCH [5]: 20.2 pg
- MCHC [5]: 34.1%
- MCV [5]: 59.2 fL
- Mono [5]: 9%
- Neu [5]: 42%
- PT [5]: 14.7 s
- Plat [5]: 109.9 x10_4/uL
- RBC [5]: 792.3 x10_4/ul
- Ret [5]: 2.8%
- WBC [5]: 127.9 x10_2/uL
- Bas [6]: 0%
- MCHC [6]: 34.2%
- KIDNEY_L [5]: 1 g
- KIDNEY_R [5]: 1 g
- KIDNEY_TOTAL [5]: 2.1 g
- KIDNEY_L [6]: 1 g
- KIDNEY_TOTAL [6]: 2.1 g
- LIVER [5]: 11.3 g
- A/G [5]: 1.7
- ALP [5]: 739.3 IU/L
- ALT [5]: 66 IU/L
- AST [5]: 129 IU/L
- BUN [5]: 12.7 mg/dL
- CRE [5]: 0.4 mg/dL
- Ca [5]: 10.1 mg/dL
- Cl [5]: 102.3 meq/L
- DBIL [5]: 0.0933 mg/dL
- GLC [5]: 143 mg/dL
- IP [5]: 7.2 mg/dL
- K [5]: 3.9 meq/L
- LDH [5]: 397.7 IU/L
- Na [5]: 136.7 meq/L
- PL [5]: 123.7 mg/dL
- RALB [5]: 3.6 g/dL
- TBIL [5]: 0.3 mg/dL
- TC [5]: 95.3 mg/dL
- TG [5]: 22.3 mg/dL
- TP [5]: 5.7 g/dL
- gamma-GTP [5]: 3.7 IU/L
- TBIL [6]: 0.3 mg/dL
- gamma-GTP [6]: 7 IU/L
